In patent publication US12539281B2 (priority 2021, dated 2026):
Read-outs that look alike come from different tables or passages of the source.

Legend:
[1] = tested on: blood-brain barrier (BBB); assay: IA ethyl alcohol, NEO100 or mannitol mediated BBB disruption, extravasated EB dye in perfused mouse brain (Experiments 1-3); type: in vivo, mice; conditions: for EB dye / EB dye penetration level / Patchy, or punctate pattern of EB dye: perfused mouse brain
Description: The method of IA and IC injection is similar to the IV push in the clinic, which comprises essentially the steps of: • pushing the injection composition at a particular infusion flow rate immediately after the placement of the IA catheter into the internal carotid artery (ICA) or the insertion of the injection needle into the left ventricle via the ultrasound-guided intracardiac (IC) puncture at room temperature.
When performing the IA and IC injections, the infusion flow rate is about 5-7 μl/second (0.3-0.45 ml/min), the infusion volume is about […] of the body weight (at 1 μl/g, volume/weight ratio), and USP purified water or sodium chloride is used to reconstitute varied EA solutions at room temperature.
Intracardiac injection of NEO100 or EA can be carried out through the procedure of ultrasound-guided intracardiac (IC) injection. […] The mouse is anesthetized in an induction chamber using 2-3% isoflurane in 100% oxygen at a rate of 0.2-0.5 L/min. Fur over the thorax area is removed and the animal is placed in a stereotactic frame in supine position, securing the upper and lower limbs to avoid body movement. The ultrasound transducer is placed above the chest of the animal, and the injection syringe is anchored to a platform to avoid erratic needle movements. An electrocardiogram monitor is used to monitor heart function during the intracardiac injection.
EB dye is used as the non-BBB permeable substance.
Photographs of the perfused brain tissues of the experimental mice after treatment are taken.
Extravasated EB dye is used as the non-BBB permeable substance.

[2] = tested on: blood-brain barrier (BBB); assay: Comparison of intracardiac EA and NEO100 mediated BBB opening, EB dye (Comparative Experiment 19, Experiment 20); type: in vivo, mice
Description: Intracardiac injected various concentrations of EA (at 25%, 20%, 3%, 0.3%, and 0.1%, 0.03%, 0.01%) and NEO100 (at 25%, 20%, 3%, 0.3%, and 0.1%, 0.03%, 0.01%) are used on mice to test their effects on BBB disruption and evaluated by the observation of extravasated EB dye in the brain tissues. […] Photographs of the perfused brain tissues from the experimental mice treated with […] EA and NEO100 are taken for observation and comparison.
The same procedure as experiment 19 was performed with IA 0.3% NEO100 with 2% EB dye solution.

[3] = cited from earlier work
[4] = tested on: blood-brain barrier (BBB); conditions: IA NEO100, IA mannitol; stated for comparison, no test described; cited from earlier work
[5] = Comparison of the toxicity of IA NEO100 and IA EA (Experiment 21)
Description: The safety profile of IA 0.3% NEO100 vs. IA 0.3% EA are compared. […] There are 15 experimental mice in each testing group. The potential adverse effects are evaluated.

[6] = tested on: blood-brain barrier (BBB)
[7] = IA injection 0.3%, 15 mice per group
[8] = IA injection 0.3%, 15 mice per group, number of mice

Compound: C=C(C)[C@@H]1CC=C(CO)CC1 [NEO100, perillyl alcohol]
- EB dye ([1]; IA agent at 0.1%): Observed
- EB dye penetration level ([1]; IA agent at 0.1%): Few Patchy
- Patchy, or punctate pattern of EB dye ([1]; IA agent at 0.1%): Observed
- EB dye ([1]; IA agent at 0.3%): Observed
- EB dye penetration level ([1]; IA agent at 0.3%): Widely
- Patchy, or punctate pattern of EB dye ([1]; IA agent at 0.3%): Observed
- EB dye ([1]; IA agent at 3%): Observed
- EB dye penetration level ([1]; IA agent at 3%): Widely
- Patchy, or punctate pattern of EB dye ([1]; IA agent at 3%): Observed
- EB dye ([1]; IA agent at 5%): Observed
- EB dye penetration level ([1]; IA agent at 5%): Widely
- Patchy, or punctate pattern of EB dye ([1]; IA agent at 5%): Observed
- brain finding in sudden-death mouse (inferior view) ([2]; IA 0.3% NEO100 with 2% EB dye, mouse died right after treatment): bleeding and a blood clot
- pattern of breached BBB, coronal section ([2]; IA 25% NEO, mice): random, haphazard, sporadic, patchy, or punctate pattern
- dose response of BBB disruption ([2]; intracardiac 25%, 20%, 3%, 0.3%, 0.1%, 0.03%, 0.01%, mice): dose-dependent manner
- solubility in water [3]: water-insoluble
- interval window of the breached BBB [4]: 4 h
- Mortality [5, 7]: 53.33%
- tested animals that experienced adverse effects [5, 7]: almost all
- Immediate Sudden Death [5, 8]: 3
- Intermediate-lasting epilepsy post-injection leading to death [5, 8]: 2
- Long-lasting epilepsy post-injection leading death [5, 8]: 3
- Moderate-lasting epilepsy post-injection and survival to fully recovery [5, 8]: 3
- Transient, mild, or occasional epilepsy post-injection and survival to fully recovery [5, 8]: 4
- overall mortality rate ([5]; repeated comparative experiments of IA EA and IA NEO100): around 60%

Compound: OC[C@@H](O)[C@@H](O)[C@H](O)[C@H](O)CO [mannitol]
- EB dye penetration level ([1]; IA agent at 0.1%): Not
- EB dye penetration level ([1]; IA agent at 0.3%): Not
- EB dye penetration level ([1]; IA agent at 3%): Not
- EB dye penetration level ([1]; IA agent at 5%): Not
- brain damage ([1]; IA mannitol at 0.1%, 0.3%, 3%, and 5%, mice): Some brain damage is observed
- disrupted BBB after IC mannitol ([1]; IC application of varied volumes of high concentrations of mannitol, mice): No disrupted BBB is observed
- EB (induced BBB disruption) ([6]; group A: 1800 μl 25% mannitol infused in 30 seconds): observed
- EB (induced BBB disruption) ([6]; group C: 300 μl 25% mannitol at regular speed in 1 minute, warmed to 37° C.): not observed
- interval window of the breached BBB [4]: 6 to 7 h
